Results taken from ChEMBL document CHEMBL1201862, “PubChem BioAssay data set” (2004).
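These data come from cells grown in 96-well plates and exposed to compound for 48 hours at five concentrations. Abbreviation: GI50, concentration required for 50% inhibition of growth.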 Activity calls are given as the source filed them. Cut-off read from the data, not from the text of the source: active = GI50 up to about 1.1 µM and inactive = higher.

Key:
Test in all cases: NCI tumour cell line growth inhibition, 48 h
[1] = tested on: PC-3
[2] = tested on: HT-29
[3] = tested on: HCT-116
[4] = tested on: NCI-H226
[5] = tested on: SK-MEL-2
[6] = tested on: IGROV-1
[7] = tested on: Malme-3M
[8] = tested on: K562
[9] = tested on: SW-620
[10] = tested on: MCF7
[11] = tested on: MDA-N
[12] = tested on: SK-MEL-28
[13] = tested on: CCRF-CEM
[14] = tested on: A498
[15] = tested on: CAKI-1
[16] = tested on: SF-268
[17] = tested on: BT-549
[18] = tested on: SR
[19] = tested on: HCC 2998
[20] = tested on: COLO 205

Row | Compound | GI50 [1] | GI50 [2] | GI50 [3] | GI50 [4] | GI50 [5] | GI50 [6] | GI50 [7] | GI50 [8] | GI50 [9] | GI50 [10] | GI50 [11] | GI50 [12] | GI50 [13] | GI50 [14] | GI50 [15] | GI50 [16] | GI50 [17] | GI50 [18] | GI50 [19] | GI50 [20]
1 | O=C(COc1ccc(Cl)cc1Cl)N/N=C/C=C/c1ccc([N+](=O)[O-])o1 | 12.6 µM (inactive) | 7.01 µM (inactive) | 1.87 µM (inactive) | 10.5 µM (inactive) | 3.27 µM (inactive) | 1.42 µM (inactive) | 2.8 µM (inactive) | 4.43 µM (inactive) | 5.37 µM (inactive) | 4.14 µM (inactive) | 3.43 µM (inactive) | 4.08 µM (inactive) | 3.13 µM (inactive) | 11.5 µM (inactive) | > 100 µM (inactive) | 29.4 µM (inactive) | 12.1 µM (inactive) | – | – | –
2 | CCOC(=O)c1ccc(Nc2c3c(nc4ccccc24)CCCC3)cc1 | > 47.5 µM (inactive) | 2.89 µM (inactive) | > 34.3 µM (inactive) | > 100 µM (inactive) | > 86.9 µM (inactive) | 4.91 µM (inactive) | – | 3.74 µM (inactive) | 4.2 µM (inactive) | 12 µM (inactive) | 1.76 µM (inactive) | > 100 µM (inactive) | 14.2 µM (inactive) | 15.3 µM (inactive) | 54.5 µM (inactive) | 76.2 µM (inactive) | – | 25.4 µM (inactive) | > 56.4 µM (inactive) | > 100 µM (inactive)
3 | CC#CCCN(CC#N)Cc1ccccc1 | > 100 µM (inactive) | > 100 µM (inactive) | > 100 µM (inactive) | > 100 µM (inactive) | > 100 µM (inactive) | > 100 µM (inactive) | > 100 µM (inactive) | > 100 µM (inactive) | – | 20.1 µM (inactive) | > 100 µM (inactive) | > 100 µM (inactive) | > 100 µM (inactive) | 20.4 µM (inactive) | > 100 µM (inactive) | > 100 µM (inactive) | – | > 100 µM (inactive) | > 100 µM (inactive) | > 100 µM (inactive)
4 | COC(=O)[C@H](Cc1c[nH]c2ccccc12)NP(=O)(OCCC#N)OCC1OC(n2cc(C)c(=O)[nH]c2=O)CC1N=[N+]=[N-] (stereo partly drawn) | > 100 µM (inactive) | > 100 µM (inactive) | > 100 µM (inactive) | > 100 µM (inactive) | > 100 µM (inactive) | > 100 µM (inactive) | > 100 µM (inactive) | > 100 µM (inactive) | > 100 µM (inactive) | > 100 µM (inactive) | > 100 µM (inactive) | – | > 100 µM (inactive) | – | > 100 µM (inactive) | > 100 µM (inactive) | > 100 µM (inactive) | – | > 100 µM (inactive) | > 100 µM (inactive)
5 | CCN1CCC(C)OP1(=O)Cc1ccccc1 (stereo not drawn) | > 100 µM (inactive) | > 100 µM (inactive) | > 100 µM (inactive) | > 100 µM (inactive) | > 100 µM (inactive) | > 100 µM (inactive) | > 100 µM (inactive) | > 100 µM (inactive) | > 100 µM (inactive) | > 100 µM (inactive) | – | – | – | – | > 100 µM (inactive) | > 100 µM (inactive) | > 100 µM (inactive) | > 100 µM (inactive) | > 100 µM (inactive) | > 100 µM (inactive)
6 | COc1ccc2c(c1)CC[C@@H]1[C@@H]2CC[C@]2(C)C(=O)/C(=C/c3ccc(N(C)C)cc3)C[C@@H]12 | 47.2 µM (inactive) | – | 44 µM (inactive) | – | 24.9 µM (inactive) | – | 83.2 µM (inactive) | – | > 100 µM (inactive) | – | – | – | – | 30.3 µM (inactive) | 28.1 µM (inactive) | 32.4 µM (inactive) | 29.1 µM (inactive) | – | > 100 µM (inactive) | > 100 µM (inactive)
7 | [O-][n+]1cc(SCc2ccccc2)ncc1SCc1ccccc1 | > 10 µM (inactive) | > 10 µM (inactive) | > 10 µM (inactive) | > 10 µM (inactive) | > 10 µM (inactive) | > 10 µM (inactive) | > 10 µM (inactive) | > 10 µM (inactive) | – | > 10 µM (inactive) | – | > 10 µM (inactive) | > 10 µM (inactive) | > 10 µM (inactive) | > 10 µM (inactive) | > 10 µM (inactive) | 0.811 µM (active) | > 10 µM (inactive) | > 10 µM (inactive) | > 10 µM (inactive)
8 | CC(=O)O[C@H]1C[C@@H](OC(C)=O)[C@@](C)(O)[C@@H]2[C@@H](OC(C)=O)[C@@]3(O)[C@H](/C=C(/CO)[C@H]4O[C@H]4[C@@H](OC(C)=O)[C@@]12C)OC(=O)[C@@H]3C | 6.04 µM (inactive) | 11 µM (inactive) | 10.3 µM (inactive) | 9.73 µM (inactive) | 6.89 µM (inactive) | 8.17 µM (inactive) | 7.78 µM (inactive) | 17.7 µM (inactive) | 11.5 µM (inactive) | – | 3.09 µM (inactive) | 22.3 µM (inactive) | 6.59 µM (inactive) | > 25 µM (inactive) | 17.7 µM (inactive) | 19.1 µM (inactive) | > 25 µM (inactive) | – | 8.91 µM (inactive) | 9.35 µM (inactive)
